Results as given in ChEMBL document CHEMBL4507268 (2021).

Assays:
Conditions in all cases: Compound concentration 1000.0 nM
[1] = molecular target: Tyrosine-protein kinase Srms (Homo sapiens) (UniProt Q9H3Y6)
[2] = molecular target: Phosphatidylinositol 4,5-bisphosphate 3-kinase catalytic subunit alpha isoform (Homo sapiens) (UniProt P42336)
[3] = system: Mast/stem cell growth factor receptor Kit (Homo sapiens), P10721 [V559D]
[4] = molecular target: T1, Mitogen-activated protein kinase kinase kinase 5 (Homo sapiens) (UniProt Q99683)
T1 sequence (whole entry): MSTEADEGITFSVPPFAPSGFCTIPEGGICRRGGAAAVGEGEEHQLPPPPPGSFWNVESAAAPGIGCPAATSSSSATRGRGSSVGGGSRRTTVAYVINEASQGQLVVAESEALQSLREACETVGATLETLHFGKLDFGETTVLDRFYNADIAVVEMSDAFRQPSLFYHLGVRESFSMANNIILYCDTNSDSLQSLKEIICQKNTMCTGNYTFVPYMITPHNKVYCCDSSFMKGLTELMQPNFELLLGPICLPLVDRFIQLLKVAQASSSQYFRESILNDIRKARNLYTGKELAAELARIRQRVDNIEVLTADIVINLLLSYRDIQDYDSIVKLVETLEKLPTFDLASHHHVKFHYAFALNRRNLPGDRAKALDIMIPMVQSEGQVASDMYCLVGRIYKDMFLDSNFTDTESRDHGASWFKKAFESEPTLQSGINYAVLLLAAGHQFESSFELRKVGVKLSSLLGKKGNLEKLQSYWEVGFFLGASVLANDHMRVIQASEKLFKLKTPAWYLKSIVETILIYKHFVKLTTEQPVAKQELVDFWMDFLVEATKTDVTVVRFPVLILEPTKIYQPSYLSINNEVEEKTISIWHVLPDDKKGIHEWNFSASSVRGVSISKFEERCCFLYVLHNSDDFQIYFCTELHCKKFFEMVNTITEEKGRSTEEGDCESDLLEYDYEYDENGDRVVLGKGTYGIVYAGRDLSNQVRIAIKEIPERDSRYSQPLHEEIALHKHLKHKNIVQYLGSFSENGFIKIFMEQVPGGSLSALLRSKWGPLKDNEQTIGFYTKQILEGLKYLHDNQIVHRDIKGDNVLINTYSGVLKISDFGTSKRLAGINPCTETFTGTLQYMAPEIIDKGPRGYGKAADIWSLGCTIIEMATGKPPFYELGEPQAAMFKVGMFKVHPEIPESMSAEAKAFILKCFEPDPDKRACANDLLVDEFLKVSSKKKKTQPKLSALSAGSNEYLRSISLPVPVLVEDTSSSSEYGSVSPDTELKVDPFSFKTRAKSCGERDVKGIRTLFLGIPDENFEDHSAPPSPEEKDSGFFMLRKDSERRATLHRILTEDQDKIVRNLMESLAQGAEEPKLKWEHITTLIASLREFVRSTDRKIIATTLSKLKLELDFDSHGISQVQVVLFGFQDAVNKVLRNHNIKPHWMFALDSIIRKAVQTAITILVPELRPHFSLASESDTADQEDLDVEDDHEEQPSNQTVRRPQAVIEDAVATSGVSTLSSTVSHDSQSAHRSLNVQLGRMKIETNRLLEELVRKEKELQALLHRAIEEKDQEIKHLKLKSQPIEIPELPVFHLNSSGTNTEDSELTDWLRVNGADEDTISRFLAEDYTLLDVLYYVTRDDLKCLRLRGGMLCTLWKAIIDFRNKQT

[5] = molecular target: T2, Muscle, skeletal receptor tyrosine-protein kinase (Homo sapiens) (UniProt O15146)
T2 sequence (whole entry): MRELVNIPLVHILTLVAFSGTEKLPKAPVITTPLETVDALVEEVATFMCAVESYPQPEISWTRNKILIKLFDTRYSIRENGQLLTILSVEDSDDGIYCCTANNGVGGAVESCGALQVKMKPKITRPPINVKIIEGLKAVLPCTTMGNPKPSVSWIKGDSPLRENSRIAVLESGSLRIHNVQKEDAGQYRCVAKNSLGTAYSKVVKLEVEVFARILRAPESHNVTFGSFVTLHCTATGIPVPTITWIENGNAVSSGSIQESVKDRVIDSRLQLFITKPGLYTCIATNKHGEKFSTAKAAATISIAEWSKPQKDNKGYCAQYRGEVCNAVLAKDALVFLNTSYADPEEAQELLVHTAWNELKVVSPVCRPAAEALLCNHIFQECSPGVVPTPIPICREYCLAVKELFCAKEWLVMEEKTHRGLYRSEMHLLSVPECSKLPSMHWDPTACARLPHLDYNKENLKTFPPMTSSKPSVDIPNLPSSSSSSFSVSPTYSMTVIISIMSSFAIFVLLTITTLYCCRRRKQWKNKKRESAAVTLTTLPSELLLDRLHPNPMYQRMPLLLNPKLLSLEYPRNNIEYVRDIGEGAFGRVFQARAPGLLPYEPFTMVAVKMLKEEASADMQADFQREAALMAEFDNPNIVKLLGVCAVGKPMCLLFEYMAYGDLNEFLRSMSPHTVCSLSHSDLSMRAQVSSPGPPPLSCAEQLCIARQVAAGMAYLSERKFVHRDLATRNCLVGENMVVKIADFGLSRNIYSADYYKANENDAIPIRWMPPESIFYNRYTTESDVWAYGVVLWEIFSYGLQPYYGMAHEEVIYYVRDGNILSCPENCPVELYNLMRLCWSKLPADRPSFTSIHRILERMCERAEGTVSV

[6] = molecular target: T3, Tyrosine-protein kinase ITK/TSK (Homo sapiens) (UniProt Q08881)
T3 sequence (whole entry): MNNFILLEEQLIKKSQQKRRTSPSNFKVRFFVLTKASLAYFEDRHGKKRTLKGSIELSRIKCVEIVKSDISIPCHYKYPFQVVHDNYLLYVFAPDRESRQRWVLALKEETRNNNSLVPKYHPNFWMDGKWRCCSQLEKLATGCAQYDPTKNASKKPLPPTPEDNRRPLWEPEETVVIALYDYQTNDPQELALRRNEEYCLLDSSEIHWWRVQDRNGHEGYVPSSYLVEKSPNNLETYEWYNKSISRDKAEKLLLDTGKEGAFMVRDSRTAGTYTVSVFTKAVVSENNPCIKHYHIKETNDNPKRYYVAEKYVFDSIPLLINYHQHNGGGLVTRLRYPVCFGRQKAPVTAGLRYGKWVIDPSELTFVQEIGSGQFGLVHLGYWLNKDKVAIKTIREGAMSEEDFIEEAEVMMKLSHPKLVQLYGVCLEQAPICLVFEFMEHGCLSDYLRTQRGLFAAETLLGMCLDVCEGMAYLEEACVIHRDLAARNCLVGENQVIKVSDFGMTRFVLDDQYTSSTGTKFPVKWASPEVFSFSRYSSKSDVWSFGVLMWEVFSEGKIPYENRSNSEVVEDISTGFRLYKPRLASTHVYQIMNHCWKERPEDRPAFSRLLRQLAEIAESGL

Measured: residual activity

Tyrosine-protein kinase Srms (Homo sapiens), sequence (Q9H3Y6 whole entry, canonical isoform): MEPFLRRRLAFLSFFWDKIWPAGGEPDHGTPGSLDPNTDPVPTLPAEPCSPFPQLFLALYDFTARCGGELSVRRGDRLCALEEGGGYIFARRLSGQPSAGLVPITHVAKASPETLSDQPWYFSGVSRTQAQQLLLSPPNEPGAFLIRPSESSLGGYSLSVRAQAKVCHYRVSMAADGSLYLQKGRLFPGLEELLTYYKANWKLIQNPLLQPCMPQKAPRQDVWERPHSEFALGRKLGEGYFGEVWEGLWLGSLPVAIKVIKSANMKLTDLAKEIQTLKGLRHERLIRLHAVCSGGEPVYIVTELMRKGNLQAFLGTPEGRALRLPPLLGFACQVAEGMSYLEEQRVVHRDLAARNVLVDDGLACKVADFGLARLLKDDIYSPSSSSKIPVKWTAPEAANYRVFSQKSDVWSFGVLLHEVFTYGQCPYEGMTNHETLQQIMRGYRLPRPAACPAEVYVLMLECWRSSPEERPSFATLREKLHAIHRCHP
Mast/stem cell growth factor receptor Kit (Homo sapiens), P10721 [V559D], sequence (P10721 whole entry V559D): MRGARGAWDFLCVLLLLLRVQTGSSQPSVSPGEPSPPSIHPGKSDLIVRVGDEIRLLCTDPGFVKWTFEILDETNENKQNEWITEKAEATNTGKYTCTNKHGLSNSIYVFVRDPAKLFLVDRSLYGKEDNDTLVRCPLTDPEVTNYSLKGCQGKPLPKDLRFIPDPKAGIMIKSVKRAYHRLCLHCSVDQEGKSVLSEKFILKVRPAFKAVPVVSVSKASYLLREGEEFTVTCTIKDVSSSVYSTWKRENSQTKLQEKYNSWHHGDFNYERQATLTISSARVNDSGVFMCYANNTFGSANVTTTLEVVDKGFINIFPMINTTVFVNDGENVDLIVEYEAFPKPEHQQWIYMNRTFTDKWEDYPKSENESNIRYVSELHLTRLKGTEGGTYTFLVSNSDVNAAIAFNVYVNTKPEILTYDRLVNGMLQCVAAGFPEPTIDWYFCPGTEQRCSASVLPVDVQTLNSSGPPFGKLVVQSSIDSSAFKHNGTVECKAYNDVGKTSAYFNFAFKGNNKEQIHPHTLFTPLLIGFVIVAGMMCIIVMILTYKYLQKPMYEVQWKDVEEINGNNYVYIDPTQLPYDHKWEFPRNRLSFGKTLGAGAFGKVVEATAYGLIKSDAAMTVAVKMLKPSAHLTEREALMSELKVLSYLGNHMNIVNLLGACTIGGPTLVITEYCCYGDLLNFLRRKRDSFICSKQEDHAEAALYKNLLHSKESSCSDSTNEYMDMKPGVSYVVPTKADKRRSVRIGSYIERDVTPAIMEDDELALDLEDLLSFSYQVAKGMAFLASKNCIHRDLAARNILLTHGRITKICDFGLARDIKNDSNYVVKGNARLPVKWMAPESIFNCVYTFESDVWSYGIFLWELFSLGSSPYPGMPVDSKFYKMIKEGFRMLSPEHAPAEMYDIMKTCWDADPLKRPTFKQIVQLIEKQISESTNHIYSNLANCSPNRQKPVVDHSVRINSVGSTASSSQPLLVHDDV
Phosphatidylinositol 4,5-bisphosphate 3-kinase catalytic subunit alpha isoform (Homo sapiens), sequence (P42336 whole entry, canonical isoform): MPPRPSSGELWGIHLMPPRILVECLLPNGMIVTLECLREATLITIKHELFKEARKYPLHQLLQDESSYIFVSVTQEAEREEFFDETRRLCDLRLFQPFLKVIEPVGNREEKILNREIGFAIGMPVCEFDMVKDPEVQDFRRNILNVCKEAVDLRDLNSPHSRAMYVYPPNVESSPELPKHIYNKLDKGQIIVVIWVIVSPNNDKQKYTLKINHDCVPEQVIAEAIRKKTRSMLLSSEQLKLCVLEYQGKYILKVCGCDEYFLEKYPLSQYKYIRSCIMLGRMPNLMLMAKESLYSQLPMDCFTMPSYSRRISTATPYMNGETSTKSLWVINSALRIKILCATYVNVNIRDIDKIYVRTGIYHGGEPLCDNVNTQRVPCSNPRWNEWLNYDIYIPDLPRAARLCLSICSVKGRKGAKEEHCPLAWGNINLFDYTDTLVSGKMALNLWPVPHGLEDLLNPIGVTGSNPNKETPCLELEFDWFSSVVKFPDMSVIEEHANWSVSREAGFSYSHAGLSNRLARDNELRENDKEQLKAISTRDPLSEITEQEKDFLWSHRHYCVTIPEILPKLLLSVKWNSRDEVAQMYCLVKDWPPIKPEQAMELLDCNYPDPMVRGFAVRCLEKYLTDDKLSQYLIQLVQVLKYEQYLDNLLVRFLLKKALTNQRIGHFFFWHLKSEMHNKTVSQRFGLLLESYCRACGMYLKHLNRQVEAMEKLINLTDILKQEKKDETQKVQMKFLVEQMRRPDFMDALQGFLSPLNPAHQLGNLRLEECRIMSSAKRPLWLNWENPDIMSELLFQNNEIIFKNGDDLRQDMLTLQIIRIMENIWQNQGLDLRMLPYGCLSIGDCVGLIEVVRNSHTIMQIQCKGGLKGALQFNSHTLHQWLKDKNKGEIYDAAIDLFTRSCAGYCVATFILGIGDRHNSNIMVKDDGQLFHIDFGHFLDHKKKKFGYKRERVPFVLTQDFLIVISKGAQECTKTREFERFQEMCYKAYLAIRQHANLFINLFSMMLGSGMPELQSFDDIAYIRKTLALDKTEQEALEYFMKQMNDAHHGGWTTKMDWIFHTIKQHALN

Cc1nc(C2CCN(C(=O)c3ccc(OC(F)(F)F)cc3N)CC2)c2ncc(N3CCN(C)CC3)cc2n1 [BAY-693]
inactive: [1] 100% | [2] 81% | [3] 93% | [4] 99% | [5] 100% | [6] 89%

CN1CCN(c2cnc3c(C4CCN(C(=O)c5ccc(OC(F)(F)F)cc5N)CC4)ncnc3c2)CC1 [BAY-885]
inactive: [1] 100% | [2] 95% | [3] 99% | [4] 92% | [5] 100% | [6] 100%
